Experimental data from ChEMBL document CHEMBL3046763 (J Pestic Sci, 2000).
≈ marks a conversion by molar mass, not a printed value.

Legend:
[1] = test system: Delphacodes; assay: Insecticidal activity against Delphacodes striatellus assessed as mortality at 50 ppm by test tube method; format: functional
[2] = test system: Delphacodes; assay: Insecticidal activity against Delphacodes striatellus assessed as mortality at 10 ppm by test tube method; format: functional
[3] = test system: Spodoptera litura; assay: Insecticidal activity against Spodoptera litura assessed as mortality by filter paper method; format: functional
[4] = test system: Spodoptera litura; assay: Insecticidal activity against Spodoptera litura assessed as mortality at 50 ppm by filter paper method; format: functional
[5] = Acute toxicity in po dosed Mus musculus ddY (mouse); format: organism-based; settings: in vivo, read-out: LC50 (the source's name)

CCOC(=O)CC(SP(=S)(OC)OC)C(=O)OCC (stereo not given) [MALATHION]
mortality at 50 ppm [1]: 100%
mortality at 10 ppm [2]: 77%
LC50 [3]: 8.3 µg/mL (≈ 25.1 µM)
mortality at 50 ppm [4]: 100%
LD50 [5]: 347 mg/kg
